Values quoted from earlier work in patent US20050049268A1, “Use of at least one abl, kit and/or platelet-derived growth factor receptor tyrosine kinases inhibitor for treating hair depigmentation” (priority 2001, published 2005).

Columns and labels:
c-Met = c-Met (Homo sapiens, UniProt P08581)
[1] = target: receptor for stem cell factor (Homo sapiens, UniProt P10721)
[2] = test system: platelet-derived growth factor (PDGF) receptor tyrosine kinases; details: in vitro
α-PDGF receptor = α-PDGF receptor (Homo sapiens, UniProt P16234)
Jak-2 = Jak-2 (Homo sapiens, UniProt O60674)
Sequence of Jak-2 (O60674 whole entry, species assumed): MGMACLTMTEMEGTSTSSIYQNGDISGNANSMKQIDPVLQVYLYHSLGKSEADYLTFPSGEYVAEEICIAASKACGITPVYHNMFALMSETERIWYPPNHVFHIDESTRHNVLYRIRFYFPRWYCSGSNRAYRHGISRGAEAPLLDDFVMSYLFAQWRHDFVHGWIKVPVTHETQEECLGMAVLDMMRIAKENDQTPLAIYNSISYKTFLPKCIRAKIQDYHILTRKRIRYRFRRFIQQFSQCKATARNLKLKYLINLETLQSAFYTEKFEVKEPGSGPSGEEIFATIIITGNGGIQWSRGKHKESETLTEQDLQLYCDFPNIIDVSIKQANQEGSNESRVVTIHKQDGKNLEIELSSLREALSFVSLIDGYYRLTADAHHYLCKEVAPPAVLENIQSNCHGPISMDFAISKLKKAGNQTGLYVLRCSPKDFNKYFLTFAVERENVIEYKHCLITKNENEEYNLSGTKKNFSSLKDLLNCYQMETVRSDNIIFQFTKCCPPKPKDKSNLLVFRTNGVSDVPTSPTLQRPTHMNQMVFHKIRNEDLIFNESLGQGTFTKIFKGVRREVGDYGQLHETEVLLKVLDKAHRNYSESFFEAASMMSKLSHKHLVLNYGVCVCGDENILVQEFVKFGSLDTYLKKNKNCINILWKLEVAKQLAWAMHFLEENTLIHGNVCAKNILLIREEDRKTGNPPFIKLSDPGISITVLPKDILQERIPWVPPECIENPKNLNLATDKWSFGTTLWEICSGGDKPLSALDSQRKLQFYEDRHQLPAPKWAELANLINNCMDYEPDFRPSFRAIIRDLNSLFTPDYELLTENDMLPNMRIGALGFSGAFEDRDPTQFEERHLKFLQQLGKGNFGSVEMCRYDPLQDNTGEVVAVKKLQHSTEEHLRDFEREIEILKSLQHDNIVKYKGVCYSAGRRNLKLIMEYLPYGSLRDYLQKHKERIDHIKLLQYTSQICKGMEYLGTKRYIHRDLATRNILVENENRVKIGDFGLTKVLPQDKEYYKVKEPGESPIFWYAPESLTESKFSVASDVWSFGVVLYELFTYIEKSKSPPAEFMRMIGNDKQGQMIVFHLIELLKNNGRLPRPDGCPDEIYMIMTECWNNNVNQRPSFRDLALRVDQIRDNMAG

β-PDGF receptor = β-PDGF receptor (Homo sapiens, UniProt P09619)
Sequence of β-PDGF receptor (P09619 33-1106): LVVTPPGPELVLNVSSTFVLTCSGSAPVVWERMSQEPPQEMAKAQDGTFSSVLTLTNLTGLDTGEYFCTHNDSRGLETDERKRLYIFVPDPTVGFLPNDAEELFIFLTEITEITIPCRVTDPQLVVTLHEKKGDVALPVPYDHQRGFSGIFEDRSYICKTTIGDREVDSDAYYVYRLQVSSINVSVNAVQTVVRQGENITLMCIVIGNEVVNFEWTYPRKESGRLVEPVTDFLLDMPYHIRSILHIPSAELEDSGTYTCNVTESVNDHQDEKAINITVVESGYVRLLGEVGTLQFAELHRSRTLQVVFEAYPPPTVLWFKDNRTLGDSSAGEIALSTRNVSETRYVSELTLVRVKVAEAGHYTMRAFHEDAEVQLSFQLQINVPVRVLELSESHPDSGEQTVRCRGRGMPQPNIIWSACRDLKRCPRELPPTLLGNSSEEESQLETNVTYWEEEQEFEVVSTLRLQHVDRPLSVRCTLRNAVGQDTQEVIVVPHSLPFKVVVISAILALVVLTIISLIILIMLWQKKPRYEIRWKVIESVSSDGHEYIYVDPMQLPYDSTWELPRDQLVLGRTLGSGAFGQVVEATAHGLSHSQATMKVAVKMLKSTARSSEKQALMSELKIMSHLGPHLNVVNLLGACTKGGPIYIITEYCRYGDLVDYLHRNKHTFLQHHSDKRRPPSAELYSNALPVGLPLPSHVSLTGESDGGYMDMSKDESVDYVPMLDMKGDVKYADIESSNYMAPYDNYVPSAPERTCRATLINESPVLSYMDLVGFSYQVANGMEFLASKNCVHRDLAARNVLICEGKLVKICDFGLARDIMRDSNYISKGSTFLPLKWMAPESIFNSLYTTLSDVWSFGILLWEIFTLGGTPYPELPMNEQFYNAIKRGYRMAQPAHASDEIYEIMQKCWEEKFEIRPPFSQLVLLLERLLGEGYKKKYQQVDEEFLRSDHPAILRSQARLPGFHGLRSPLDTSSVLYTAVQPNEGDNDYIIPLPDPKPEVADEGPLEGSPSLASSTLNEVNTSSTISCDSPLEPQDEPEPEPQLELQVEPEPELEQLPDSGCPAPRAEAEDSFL

Sequence of c-Met (P08581 25-1390): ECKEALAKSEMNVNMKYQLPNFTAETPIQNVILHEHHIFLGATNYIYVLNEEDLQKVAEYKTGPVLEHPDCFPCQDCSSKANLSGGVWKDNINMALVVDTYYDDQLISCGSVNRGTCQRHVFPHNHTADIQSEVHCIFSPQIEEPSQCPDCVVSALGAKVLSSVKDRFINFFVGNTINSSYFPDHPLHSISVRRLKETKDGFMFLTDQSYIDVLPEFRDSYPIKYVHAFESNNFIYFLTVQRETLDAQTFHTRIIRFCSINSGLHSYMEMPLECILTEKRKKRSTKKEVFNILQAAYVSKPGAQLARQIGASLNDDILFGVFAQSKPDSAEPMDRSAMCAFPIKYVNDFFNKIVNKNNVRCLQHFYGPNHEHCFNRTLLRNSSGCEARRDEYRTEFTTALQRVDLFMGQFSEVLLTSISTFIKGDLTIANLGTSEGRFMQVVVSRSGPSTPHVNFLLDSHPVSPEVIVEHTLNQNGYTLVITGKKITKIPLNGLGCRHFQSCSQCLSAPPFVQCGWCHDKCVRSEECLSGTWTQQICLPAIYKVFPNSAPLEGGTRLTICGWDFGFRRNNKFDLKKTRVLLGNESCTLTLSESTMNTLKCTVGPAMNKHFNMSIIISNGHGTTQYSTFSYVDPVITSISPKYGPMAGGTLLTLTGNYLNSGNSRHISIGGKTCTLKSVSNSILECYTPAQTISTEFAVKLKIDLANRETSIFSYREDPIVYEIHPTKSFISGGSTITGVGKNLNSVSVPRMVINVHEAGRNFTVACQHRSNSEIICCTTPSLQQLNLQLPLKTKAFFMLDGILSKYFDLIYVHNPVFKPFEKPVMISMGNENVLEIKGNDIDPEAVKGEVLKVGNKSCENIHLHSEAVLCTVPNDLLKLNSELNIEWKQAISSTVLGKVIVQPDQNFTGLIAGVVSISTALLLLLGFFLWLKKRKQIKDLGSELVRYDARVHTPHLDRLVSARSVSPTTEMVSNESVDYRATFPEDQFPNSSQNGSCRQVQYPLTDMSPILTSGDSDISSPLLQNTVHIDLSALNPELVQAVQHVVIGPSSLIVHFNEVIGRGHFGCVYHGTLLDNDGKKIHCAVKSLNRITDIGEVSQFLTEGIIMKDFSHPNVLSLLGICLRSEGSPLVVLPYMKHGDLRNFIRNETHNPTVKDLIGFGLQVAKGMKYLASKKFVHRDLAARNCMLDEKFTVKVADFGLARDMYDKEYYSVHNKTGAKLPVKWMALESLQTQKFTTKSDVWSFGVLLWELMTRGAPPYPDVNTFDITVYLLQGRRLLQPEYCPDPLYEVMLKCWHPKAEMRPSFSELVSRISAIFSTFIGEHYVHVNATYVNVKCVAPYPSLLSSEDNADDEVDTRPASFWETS
Sequence of receptor for stem cell factor (P10721 26-976): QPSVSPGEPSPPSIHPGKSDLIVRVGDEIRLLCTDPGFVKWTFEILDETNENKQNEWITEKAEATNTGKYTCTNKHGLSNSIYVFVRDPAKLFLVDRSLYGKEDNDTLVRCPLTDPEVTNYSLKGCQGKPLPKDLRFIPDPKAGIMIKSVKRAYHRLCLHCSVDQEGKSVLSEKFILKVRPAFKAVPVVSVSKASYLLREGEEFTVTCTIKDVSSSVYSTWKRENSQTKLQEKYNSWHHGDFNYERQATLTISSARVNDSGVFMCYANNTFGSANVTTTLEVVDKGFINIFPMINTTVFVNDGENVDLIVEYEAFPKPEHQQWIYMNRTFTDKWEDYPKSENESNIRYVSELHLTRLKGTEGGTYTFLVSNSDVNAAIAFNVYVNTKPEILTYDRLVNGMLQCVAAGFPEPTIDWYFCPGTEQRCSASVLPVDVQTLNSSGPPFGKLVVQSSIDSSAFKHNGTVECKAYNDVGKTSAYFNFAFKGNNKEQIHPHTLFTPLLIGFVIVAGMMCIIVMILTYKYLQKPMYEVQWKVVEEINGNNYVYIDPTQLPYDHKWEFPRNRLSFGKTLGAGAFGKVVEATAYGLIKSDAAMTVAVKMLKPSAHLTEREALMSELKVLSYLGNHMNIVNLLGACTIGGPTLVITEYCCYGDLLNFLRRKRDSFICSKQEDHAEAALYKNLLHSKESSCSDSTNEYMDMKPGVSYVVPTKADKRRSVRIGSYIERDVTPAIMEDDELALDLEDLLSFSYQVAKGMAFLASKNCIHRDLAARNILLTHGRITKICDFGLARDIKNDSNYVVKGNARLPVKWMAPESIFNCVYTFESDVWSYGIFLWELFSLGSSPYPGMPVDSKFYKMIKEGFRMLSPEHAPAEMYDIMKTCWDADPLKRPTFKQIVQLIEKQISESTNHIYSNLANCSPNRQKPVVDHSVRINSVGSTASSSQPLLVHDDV

inhibition of c-Met (c-Met): no inhibition
inhibition of kinase activity of the receptor for stem cell factor [1]: potently inhibit
inhibition of kinase activity of α-PDGF receptor (α-PDGF receptor): potently inhibit
inhibition of Jak-2 (Jak-2): no inhibition
inhibition of kinase activity of β-PDGF receptor (β-PDGF receptor): potently inhibit
SMILES: Cc1ccc(NC(=O)c2ccc(CN3CCN(C)CC3)cc2)cc1Nc1nccc(-c2cccnc2)n1 [Imatinib, N-{5-[4-(4-methyl-piperazino-methyl)-benzoylamido]-2-methylphenyl}-4-(3-pyridyl)-2-pyrimidine-amine]
inhibition of PDGF receptor tyrosine kinases [2]: selectively inhibits
